Counter-ions that a name gives are not always drawn. Like-named read-outs stand apart in the source and are kept apart here.
How the values were obtained:
IRAK4 = target: T1, IRAK4 (Homo sapiens, UniProt Q9NWZ3); assay: IRAK4 MSD Biochemical Assay (1 mM ATP, 2 h); conditions: room temperature
T1 construct: with 0.1 nM IRAK4, 1.6 μM of biotinylated peptide substrate and 10 μM ATP
T1 sequence (Q9NWZ3 1-460): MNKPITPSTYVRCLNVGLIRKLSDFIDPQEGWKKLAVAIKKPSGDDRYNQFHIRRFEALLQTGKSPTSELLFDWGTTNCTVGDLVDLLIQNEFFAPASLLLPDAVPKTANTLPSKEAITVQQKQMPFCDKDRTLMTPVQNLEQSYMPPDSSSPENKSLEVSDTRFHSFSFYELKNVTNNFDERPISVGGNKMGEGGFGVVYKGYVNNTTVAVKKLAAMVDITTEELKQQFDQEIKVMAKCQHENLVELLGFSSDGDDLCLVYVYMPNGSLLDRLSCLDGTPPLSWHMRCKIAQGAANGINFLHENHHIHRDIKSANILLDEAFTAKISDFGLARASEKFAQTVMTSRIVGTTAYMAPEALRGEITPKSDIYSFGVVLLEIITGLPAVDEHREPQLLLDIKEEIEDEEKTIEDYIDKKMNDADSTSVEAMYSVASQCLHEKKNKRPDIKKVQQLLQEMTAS
Method: The 2-hour 10 μM ATP Biochemical Assay employs a MesoScale Detection (MSD) format.
The activity is quenched with 11 μl of 70 mM EDTA, pH 8.
To detect the phosphorylated biotinylated peptide substrate, 30 μl of the quenched reaction mixture is added to equivalent wells of a 384 well streptavidin coated MesoScale plate (Meso Scale Discovery #L21SA-1). After a 1 hour incubation of the plate for 1 hour at room temperature with gentle mixing, the plate wells are washed 3 times with 50 mM Tris, pH 7.5, 150 mM NaCl, 0.02% Tween-20.
A 25 μl volume of 1:500 anti-P-Threonine Rabbit polyclonal Antibody plus 1:500 Goat-anti-Rabbit Sulfo Tag Antibody (Meso Scale Discovery R32AB-1) in 50 mM Tris, pH 7.5, 150 mM NaCl, 0.02% Tween-20 plus 2% BSA is then added to each well. After a 1-hour incubation of the plate for 1 hour at room temperature with gentle mixing, the plate wells are washed, 3 times with 50 mM Tris, pH 7.5, 150 mM NaCl, 0.02% Tween-20. A 40 μl volume of 2×MSD Read Buffer (Meso Scale Discovery R92TC-1) is added to each well, and the plate is read immediately in an MSD Plate Reader (Meso Scale Discovery).
The 2-hour 1 mM ATP IRAK4 Biochemical assay was performed as described above, but with […] IRAK4 and 1 mM ATP.

MDR1 (P-gp) = target: T2, MDR1 (P-gp) (Homo sapiens, UniProt P08183); assay: MDR1-MDCK assay (efflux ratio); type: in vitro ADME; conditions: human, MDCK-MDR1, 1 μM compound, 120 minutes incubation; read-out: MDR1-MDCK Efflux Ratio; (B-A/A-B)
T2 construct: host or cells: MDCK cells
Method: • The assay makes use of human MDR1 transfected MDCK cells (NIH cell line in-licensed from Absorption Systems) • The compounds are tested at 1 μM concentration prepared in transport buffer (Hank's balanced salt solution with HEPES) • MDR1-MDCK cell are cultured for 7 days in 96 well transwell insert plates (Corning). Insert plates are washed before the assay and TEER (Trans epithelial electric resistance) is measured. • These plates are loaded with test compound solution 85 μL for A-B transport and 260 μL for B-A transport in the respective donor compartment.
Mass balance=100×((Vr×Cr^final)+(Vd×Cd^final))/(Vd×CE) • Where: • dCr/dt is the cumulative concentration in the receiver compartment versus time in μM s^−1 • Vr is the volume of the receiver compartment in cm^3 • Vd is the volume of the donor compartment in cm^3 • A is the area of the insert (0.143 cm^2 for 96-well insert) • CE is the estimated experimental concentration (Time=0) of the dosing solution • Cr^final is the concentration of the receiver at the end of the incubation period • Cd^final is the concentration of the donor at the end of the incubation period.

[1] = read-out: IRAK4 MSD Biochemical Assay (1 mM ATP, 2 h) IC50
[2] = IRAK4 MSD Biochemical Assay (1 mM ATP, 2 h) IC50 (nM)

T2 sequence (P08183 whole entry): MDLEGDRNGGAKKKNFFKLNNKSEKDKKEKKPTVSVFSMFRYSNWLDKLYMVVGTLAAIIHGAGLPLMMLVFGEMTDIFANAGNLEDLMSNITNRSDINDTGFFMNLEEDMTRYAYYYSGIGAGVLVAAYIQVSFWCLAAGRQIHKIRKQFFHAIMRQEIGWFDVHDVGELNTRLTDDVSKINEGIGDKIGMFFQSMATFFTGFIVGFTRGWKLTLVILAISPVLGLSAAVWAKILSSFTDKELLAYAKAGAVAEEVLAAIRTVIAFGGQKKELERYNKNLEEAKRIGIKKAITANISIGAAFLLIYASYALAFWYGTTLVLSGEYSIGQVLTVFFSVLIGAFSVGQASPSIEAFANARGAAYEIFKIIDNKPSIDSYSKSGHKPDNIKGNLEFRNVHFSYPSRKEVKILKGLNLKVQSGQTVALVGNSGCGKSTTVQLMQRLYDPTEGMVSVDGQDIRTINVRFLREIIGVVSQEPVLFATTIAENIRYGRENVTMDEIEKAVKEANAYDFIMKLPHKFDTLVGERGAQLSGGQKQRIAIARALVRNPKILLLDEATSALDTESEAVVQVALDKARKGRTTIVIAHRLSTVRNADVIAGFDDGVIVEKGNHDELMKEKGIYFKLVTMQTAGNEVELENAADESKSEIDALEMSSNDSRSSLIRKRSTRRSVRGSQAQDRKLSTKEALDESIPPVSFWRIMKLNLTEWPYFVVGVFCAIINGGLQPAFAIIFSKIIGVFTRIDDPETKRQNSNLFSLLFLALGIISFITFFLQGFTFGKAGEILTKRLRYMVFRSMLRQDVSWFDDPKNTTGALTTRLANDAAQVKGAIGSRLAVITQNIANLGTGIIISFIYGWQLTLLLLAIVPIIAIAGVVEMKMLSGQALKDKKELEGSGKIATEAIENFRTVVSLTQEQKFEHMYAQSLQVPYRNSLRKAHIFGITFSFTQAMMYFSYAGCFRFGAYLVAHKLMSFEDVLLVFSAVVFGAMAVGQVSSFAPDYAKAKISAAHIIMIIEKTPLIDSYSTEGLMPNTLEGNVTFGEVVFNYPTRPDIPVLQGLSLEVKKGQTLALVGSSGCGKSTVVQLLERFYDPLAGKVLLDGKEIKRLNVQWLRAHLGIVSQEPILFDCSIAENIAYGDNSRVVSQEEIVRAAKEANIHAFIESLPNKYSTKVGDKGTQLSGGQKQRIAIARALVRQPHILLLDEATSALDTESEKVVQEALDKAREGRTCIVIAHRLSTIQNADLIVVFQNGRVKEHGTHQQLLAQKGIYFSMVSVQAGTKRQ

IC50 (IRAK4; [1]) | efflux ratio at 120 min, 1 μM (MDR1 (P-gp)) | SMILES | IC50 (IRAK4; [2])
1.8 nM | 1.5 | Cn1cccc(NC(=O)c2cc3cn(C[C@H]4CCOC4)nc3nc2OC2CCCC2)c1=O (single isomer, unassigned) [Example 114] | 
5 nM | 1.1 | COCCCn1cc2cc(C(=O)Nc3cnn4cccnc34)c(OC(C)C)cc2n1 [Example 35, 6-Isopropoxy-2-(3-methoxypropyl)-N-(pyrazolo[1,5-a]pyrimidin-3-yl)-2H-indazole-5-carboxamide] | 
0.5 nM | 5.9 | Cc1cnc2c(NC(=O)c3cc4cn(C[C@@H]5CCOC5)nc4nc3OC3CCC3)cnn2c1 (single isomer, unassigned) [Example 123] | 
2740 nM | 0.5 | COc1cccc(NC(=O)c2cc(C)c3nn(CC4CCOC4)cc3c2)n1.O=C(O)C(F)(F)F (stereo not shown) [Example 9, N-(6-methoxypyridin-2-yl)-7-methyl-2-((tetrahydrofuran-3-yl)methyl)-2H-indazole-5-carboxamide Trifluoroacetate] | 
2.8 nM | 2.2 | CC(C)Oc1nc2nn(C[C@H]3CCOC3)cc2cc1C(=O)Nc1ccn(C(F)F)n1 (single isomer, unassigned) [Example 110] | 
0.9 nM | 4.8 | Cc1cnc2c(NC(=O)c3cc4cn(C[C@H]5CCOC5)nc4nc3OC(C)C)cnn2c1 (single isomer, unassigned) [Example 104] | 
9.9 nM | 5.9 | CC(C)Oc1nc2nn(CC3CCOC3)cc2cc1C(=O)Nc1cc(F)cn(C)c1=O (stereo not shown) [Example 81, N-(5-fluoro-1-methyl-2-oxo-1,2-dihydroxypyridin-3-yl)-6-isopropxy-2-((tetrahydrofuran-3-yl)methyl)-2H-pyrazolo[3,4-b]pyridine-5-carboxamide] | 
0.5 nM | 0.7 | CC(C)Oc1cc2nn(C[C@H]3CCOC3)cc2cc1C(=O)Nc1cccc(C(F)F)n1 (single isomer, unassigned) [Example 20] | 
0.2 nM | 1.5 | CC(C)Oc1cc2nn([C@H]3CCOC(C)(C)C3)cc2cc1C(=O)Nc1cccc(C(F)F)n1 (single isomer, unassigned) [Example 47] | 
1.4 nM | 0.9 | COc1cccc(NC(=O)c2cc3cn(C4CCOCC4)nc3cc2OC(C)C)n1 [Example 66, 6-Isopropoxy-N-(6-methoxypyridin-2-yl)-2-(tetrahydro-2H-pyran-4-yl)-2H-indazole-5-carboxamide] | 
0.5 nM | 0.9 | CC(C)Oc1nc2nn([C@@H]3CCCOC3)cc2cc1C(=O)Nc1cnn2cccnc12 (single isomer, unassigned) [Example 120] | 
9.2 nM | 0.6 | COc1cccc(NC(=O)c2cc3cn(C[C@@H]4CCOC4)nc3cc2OC)n1 (single isomer, unassigned) [Example 22] | 
0.7 nM | 5.7 | COc1ncccc1NC(=O)c1cc2cn(CCC(C)(C)O)nc2nc1OC(C)C [Example 40, 2-(3-Hydroxy-3-methylbutyl)-6-isopropoxy-N-(2-methoxypyridin-3-yl)-2H-pyrazolo[3,4-b]pyridine-5-carboxamide] | 
0.2 nM | 1.1 | CC(C)Oc1cc2nn(C34CCC(C)(C3)OC4)cc2cc1C(=O)Nc1cccc(C(F)F)n1 (stereo not shown) [Example 97, N-(6-(difluoromethyl)pyridin-2-yl)-6-isopropoxy-2-(1-methyl-2-oxabicyclo[2.2.1]heptan-4-yl)-2H-indazole-5-carboxamide] | 
1 nM | 1 | COc1ncccc1NC(=O)c1cc2cn(C3CCOCC3)nc2cc1OC(C)C [Example 69, 6-Isopropoxy-N-(2-methoxypyridin-3-yl)-2-(tetrahydro-2H-pyran-4-yl)-2H-indazole-5-carboxamide] | 
6.2 nM | 0.6 | CC(C)Oc1cc2nn(C3COC3)cc2cc1C(=O)Nc1cccc(C(F)F)n1 [Example 30, N-(6-(difluoromethyl)pyridin-2-yl)-6-isopropoxy-2-(oxetan-3-yl)-2H-indazole-5-carboxamide] | 
5.4 nM | 1.3 | CC(C)Oc1cc2nn(CC34COC(C)(C3)C4)cc2cc1C(=O)Nc1cccc(C(F)F)n1.Cl [Example 27, N-(6-(difluoromethyl)pyridin-2-yl)-6-isopropoxy-2-((1-methyl-2-oxabicyclo[2.1.1]hexan-4-yl)methyl)-2H-indazole-5-carboxamide hydrochloride] | 
8.7 nM | 1.1 | CC(C)Oc1cc2nn(C3CCOCC3)cc2cc1C(=O)Nc1cccnc1OC(F)F.Cl [Example 70, N-(2-(difluoromethoxy)pyridin-3-yl)-6-isopropoxy-2-(tetrahydro-2H-pyran-4-yl)-2H-indazole-5-carboxamide hydrochloride] | 
0.8 nM | 2.1 | CC(C)Oc1cc2nn(C3CCOCC3)cc2cc1C(=O)Nc1cnn2cccnc12 [Example 72, 6-Isopropoxy-N-(pyrazolo[1,5-a]pyrimidin-3-yl)-2-(tetrahydro-2H-pyran-4-yl)-2H-indazole-5-carboxamide] | 
0.2 nM | 2.1 | CC12CCC(n3cc4cc(C(=O)Nc5cnn6cccnc56)c(OC5CCC5)cc4n3)(CO1)C2 (single isomer, unassigned) [Example 137] | 
11.3 nM | 0.4 | COCCCn1cc2cc(C(=O)Nc3cccc(C(F)F)n3)c(OC)cc2n1.Cl [Example 17, N-(6-(difluoromethyl)pyridin-2-yl)-6-methoxy-2-(3-methoxypropyl)-2H-indazole-5-carboxamide hydrochloride] | 

SMILES | IC50 (IRAK4; [1]) | efflux ratio at 120 min, 1 μM (MDR1 (P-gp)) | IC50 (IRAK4; [2])
CC(C)Oc1nc2nn(C[C@@H]3CCOC3)cc2cc1C(=O)Nc1cnn2cccnc12 (single isomer, unassigned) [Example 119] |  | 3 | 1 nM
Cc1cnc2c(NC(=O)c3cc4cn(C56COC(C)(C5)C6)nc4cc3OC3CCC3)cnn2c1 [Example 56, 6-Cyclobutoxy-2-(1-methyl-2-oxabicyclo[2.1.1]hexan-4-yl)-N-(6-methylpyrazolo[1,5-a]pyrimidin-3-yl)-2H-indazole-5-carboxamide Trifluoroacetate] | 0.5 nM | 2 | 
CC(C)Oc1nc2nn(C[C@H]3CCOC3)cc2cc1C(=O)Nc1cnn2cccnc12 (single isomer, unassigned) [Example 118] |  | 3.1 | 0.8 nM
CC12CC(n3cc4cc(C(=O)Nc5cccn(C(F)F)c5=O)c(OC5CCC5)cc4n3)(CO1)C2 [Example 84, 6-Cyclobutoxy-N-(1-(difluoromethyl)-2-oxo-1,2-dihydropyridin-3-yl)-2-(1-methyl-2-oxabicyclo[2.1.1]hexan-4-yl)-2H-indazole-5-carboxamide trifluoroacetate] | 0.5 nM | 0.9 | 
CO[C@H]1C[C@H](Oc2cc3nn(C4CCOCC4)cc3cc2C(=O)Nc2cccc(C(F)F)n2)C1.Cl [Example 50, N-(6-(difluoromethyl)pyridin-2-yl)-6-((1R,3R)-3-methoxycyclobutoxy)-2-(tetrahydro-2H-pyran-4-yl)-2H-indazole-5-carboxamide Hydrochloride] | 0.2 nM | 1.4 | 
